In publication PMC11839646, “HPK1 kinase inhibitor: a sufficient approach to target HPK1 to modulate T cell activation in cancer immunotherapy compared with degraders” (Frontiers in Immunology, 2025):
Read-outs that look alike come from different tables or passages of the source.

Assays:
human PBMCs = test: IL-2 and IFN-γ production by human PBMCs co-cultured with HEK293/OS8/PD-L1; assay type: cell-based; conditions: human PBMCs pretreated 24 h, co-culture with HEK293/OS8/PD-L1 24 h
Method: (§1) Jurkat cells (ATCC, Manassas, VA, USA) and human peripheral blood mononuclear cells (PBMCs) were cultured in RPMI-1640 medium (Thermo Fisher Scientific, Waltham, MA, USA) supplemented with 10% heat-inactivated fetal bovine serum (Thermo Fisher) and 1% penicillin–streptomycin (Thermo Fisher Scientific) at 37°C in a humidified incubator with 5% CO2. The density of Jurkat cells was adjusted to 1 × 10^6/mL 24 h before conducting the experiment. Cryopreserved human PBMCs were purchased from Oribiotech (Shanghai, China); they were freshly thawed and cultured overnight prior to performing the experiment.
Jurkat cells were seeded in triplicates into those plates for stimulation and incubated for 24 h. Alternatively, Jurkat cells were pretreated with various concentrations of the aforementioned compounds for 24 h prior to stimulation with aforementioned immobilized OKT3. For cytokine analysis of human PBMCs, the cells were seeded into U-bottomed 96-well plates (Corning Inc.) and treated with the compounds for 24 h prior to stimulation. […] Interleukin 2 (IL-2) and interferon-gamma (IFN-γ) in the supernatant were detected using the HTRF Human IL-2 Detection Kit and AlphaLISA Biotin-Free Human IFNγ Detection Kit (both obtained from Revvity, Waltham, MA, USA) according to the instructions provided by the manufacturer. […]

HPK1 [1] = target: T1, HPK1 (Homo sapiens, UniProt Q92918); test: Western blotting of TCR-induced signaling in HKO-EV, HKO-HPK1.WT and HKO-HPK1.K46E Jurkat cells; assay type: cell-based; design: expressed in transfected cells; host or cells: HPK1-knockout Jurkat single clone (EdiGene), lentiviral transduction, blasticidin-selected pool; conditions: compound pretreatment, OKT3 stimulation; for SLP76-S376 phosphorylation (Western blot): HKO-HPK1.WT Jurkat cells; for ERK1/2 phosphorylation (Western blot): HKO-HPK1.WT vs HKO-EV and HKO-HPK1.K46E Jurkat cells
From the text: The Jurkat line with a homozygous knockout of HPK1 (HKO) single clone was purchased from EdiGene (Beijing, China). HKO-EV (HKO empty vector control), HKO-HPK1.WT (HKO overexpressing wildtype HPK1), and HKO-HPK1.K46E (HKO overexpressing kinase-dead HPK1) Jurkat pools were generated by lenti-vector transduction. In brief, the coding sequences of different HPK1 mutants were inserted into a FG12-BSD plasmid with the human phosphoglycerate kinase (hPGK) promoter (GenScript, Nanjing, China). Thereafter, 293T cells (ATCC) were transfected with those plasmids together with lentivirus packing plasmids pMD2.G and psPAX2. The culture medium containing virus was collected and used to infect HKO cells. Blasticidin 10 µg/mL (InvivoGen, San Diego, CA, USA) was used for the selection of infected cells. HPK1-knockin Jurkat cells (HPK1 K46*) and kinase-inactivated HPK1-knockin Jurkat cells (HPK1 K46E) were produced by introducing a Lys46Ter mutation or a Lys46Glu mutation to the HPK1 gene, respectively.
(§2) Jurkat cells were activated by anti-human CD3 (OKT3; 10 μg/mL, Thermo Fisher Scientific), while human peripheral blood cells were activated through TCR crosslinking by biotinylated OKT3 and streptavidin (7.5 μg/mL; Thermo Fisher Scientific). The cells were lysed at various time points post stimulation, and the lysate was denatured. The obtained samples were subjected to electrophoresis, and the separated proteins were electro-transferred onto a nitrocellulose membrane. Thereafter, the membranes were incubated with antibodies against HPK1 (E1C3L), phosphorylated SLP76-S376 (p-SLP76-S376; D7S1K), SLP76 (D1R1A), p-ERK1/2-T202/Y204 (D13.14.4E), p-PLCγ1-Y783 (polyclonal), PLCγ1 (D9H10), and glyceraldehyde-3-phosphate dehydrogenase (GAPDH; D4C6R). All antibodies used for immunoblotting were purchased from Cell Signaling Technology (Danvers, MA, USA).

HPK1 [2] = target: T1, HPK1; test: HPK1 degradation in Jurkat cells (intracellular staining, flow cytometry); assay type: cell-based; design: Compound 2 degraded HPK1 in CD4^+ and CD8^+ T cells in a concentration-dependent manner; host or cells: human PBMCs (CD4+ and CD8+ T cells) from healthy donors; conditions: for HPK1 degradation at high concentrations: 24 h treatment, ≥1,000 nM
Method: as §1
(§3) Jurkat cells or human PBMCs were pretreated in triplicates or quadruplicates with dimethyl sulfoxide or compounds for 24 h. For p-SLP76-S376 analysis, the cells were activated for 30 min with OKT3. For granzyme B and perforin analysis of human PBMCs, ultra-high binding 96-well plates (Corning Inc., Corning, NY, USA) were precoated with OKT3 overnight at 4°C. Human PBMCs were pretreated in quadruplicates with dimethyl sulfoxide or compounds for 24 h. The cells were then activated for another 24 h with precoated OKT3, followed by 2 h treatment with Protein Transport Inhibitor Cocktail (Thermo Fisher). The stimulated cells were fixed with BD Phosflow™ Lyse/Fix buffer (BD Biosciences, San Diego, CA, USA), washed and permeabilized with BD Perm Buffer III (BD Biosciences), and subsequently stained with a fluorescence-conjugated antibody against HPK1 (E1C3L; Cell Signaling Technology), p-SLP76-S376 (E3G9U; Cell Signaling Technology), granzyme B (GB11, BioLegend, San Diego, CA, USA), perforin (dG9, BioLegend) and anti-human CD3 (SK7, BioLegend), CD4 (SK3, BioLegend) and CD8 (SK1, BioLegend) for primary T cells. This was followed by data acquisition and analysis with the BD FACSymphony™ A1 Cell Analyzer (BD Biosciences).

[3] = tested on: phosphorylation of SLP76-S376; test: TCR-induced p-SLP76-S376 in Jurkat cells after OKT3 stimulation (flow cytometry); assay type: cell-based; conditions: Homo sapiens; Jurkat cells pretreated 24 h, OKT3 stimulation 30 min
Method: as §1, §3

[4] = tested on: CD8+ T cells of human PBMCs; test: Granzyme B levels in CD8+ T cells of human PBMCs after OKT3 stimulation; assay type: cell-based; conditions: human PBMCs pretreated 24 h, OKT3 stimulation 24 h
Method: as §3

HPK1 [5] = target: T1, HPK1; test: HPK1 degradation in CD4+ and CD8+ T cells of human PBMCs (flow cytometry); assay type: cell-based; design: Compound 2 degraded HPK1 in CD4^+ and CD8^+ T cells in a concentration-dependent manner; host or cells: human PBMCs (CD4+ and CD8+ T cells) from healthy donors; conditions: for DC50: 24 h treatment, read-out: HPK1 degradation EC50; for HPK1 degradation at 1,000 nM / HPK1 degradation at high concentrations: CD4+ and CD8+ T cells in human PBMCs; for HPK1 degradation at 1,000 nM: 24 h, 1,000 nM; for HPK1 degradation at high concentrations: 24 h, ≥3,000 nM
Method: as §1, §3

[6] = tested on: phosphorylation of SLP76-S376; test: TCR-induced p-SLP76-S376 in CD4+ and CD8+ T cells of human PBMCs (flow cytometry); assay type: cell-based; conditions: for TCR-induced phosphorylation on SLP76-S376: 24 h pretreatment
Method: as §1, §3

Jurkat cells = test: IL-2 production by Jurkat cells stimulated with immobilized OKT3; assay type: cell-based, human; conditions: Jurkat cells pretreated 24 h, immobilized OKT3 24 h
Method: as §1
Jurkat cells were seeded in triplicates into those plates for stimulation and incubated for 24 h. Alternatively, Jurkat cells were pretreated with various concentrations of the aforementioned compounds for 24 h prior to stimulation with aforementioned immobilized OKT3. For cytokine analysis of human PBMCs, the cells were seeded into U-bottomed 96-well plates (Corning Inc.) and treated with the compounds for 24 h prior to stimulation. Next, the cells were stimulated by co-culture with HEK293/OS8/PD-L1 cells in the U-bottomed 96-well plates for another 24 h. HEK293/OS8/PD-L1 is a HEK293 cell line edited to stably co-express human PD-L1 (programmed death ligand 1) and single chain fragment variable (scFv) of OKT3 fused with transmembrane and cytoplasmic domains of murine CD8α, as previously described ([21]). Interleukin 2 (IL-2) and interferon-gamma (IFN-γ) in the supernatant were detected using the HTRF Human IL-2 Detection Kit and AlphaLISA Biotin-Free Human IFNγ Detection Kit (both obtained from Revvity, Waltham, MA, USA) according to the instructions provided by the manufacturer. Data were acquired with PHERAstar FSX (BMG LABTECH Inc., Cary, NC, USA).

HepG2 cells = test: Real-time cell mediated cytotoxicity assay (xCELLigence RTCA), PBMC killing of HepG2; assay type: cell-based; conditions: PBMC:HepG2 5:1, compared to DMSO-pretreated PBMCs, up to 6 days post TCR stimulation
Method: For in vitro HepG2 cell killing, human PBMCs were pretreated in quadruplicates with dimethyl sulfoxide or compounds for 24 h, followed by stimulation by OKT3 for another 24 h. HepG2 cells were seeded at 2 × 10^4/well in a RTCA 96-well-E plate (Agilent Technologies, Sana Clara, CA, USA). 24 h after HepG2 seeding, the stimulated PBMCs were added at a PBMC: HepG2 cells ratio of 5:1. Target cell death was monitored using xCELLigence RTCA MP instrument (Agilent Technologies).

HPK1 [7] = target: T1, HPK1; test: Western blotting of TCR-induced signaling in human PBMCs after TCR crosslinking; assay type: cell-based; design: Compound 2 degraded HPK1 in CD4^+ and CD8^+ T cells in a concentration-dependent manner; host or cells: human PBMCs (CD4+ and CD8+ T cells) from healthy donors
Method: as §1, §2

HPK1 [8] = tested on: HPK1; design: method as in PMID 32860752, PMID 39446986, PMID 39568237; conditions: preclinical; cited from earlier work
[9] = 300 nM and 1,000 nM pretreatment

T1 sequence (Q92918 whole entry): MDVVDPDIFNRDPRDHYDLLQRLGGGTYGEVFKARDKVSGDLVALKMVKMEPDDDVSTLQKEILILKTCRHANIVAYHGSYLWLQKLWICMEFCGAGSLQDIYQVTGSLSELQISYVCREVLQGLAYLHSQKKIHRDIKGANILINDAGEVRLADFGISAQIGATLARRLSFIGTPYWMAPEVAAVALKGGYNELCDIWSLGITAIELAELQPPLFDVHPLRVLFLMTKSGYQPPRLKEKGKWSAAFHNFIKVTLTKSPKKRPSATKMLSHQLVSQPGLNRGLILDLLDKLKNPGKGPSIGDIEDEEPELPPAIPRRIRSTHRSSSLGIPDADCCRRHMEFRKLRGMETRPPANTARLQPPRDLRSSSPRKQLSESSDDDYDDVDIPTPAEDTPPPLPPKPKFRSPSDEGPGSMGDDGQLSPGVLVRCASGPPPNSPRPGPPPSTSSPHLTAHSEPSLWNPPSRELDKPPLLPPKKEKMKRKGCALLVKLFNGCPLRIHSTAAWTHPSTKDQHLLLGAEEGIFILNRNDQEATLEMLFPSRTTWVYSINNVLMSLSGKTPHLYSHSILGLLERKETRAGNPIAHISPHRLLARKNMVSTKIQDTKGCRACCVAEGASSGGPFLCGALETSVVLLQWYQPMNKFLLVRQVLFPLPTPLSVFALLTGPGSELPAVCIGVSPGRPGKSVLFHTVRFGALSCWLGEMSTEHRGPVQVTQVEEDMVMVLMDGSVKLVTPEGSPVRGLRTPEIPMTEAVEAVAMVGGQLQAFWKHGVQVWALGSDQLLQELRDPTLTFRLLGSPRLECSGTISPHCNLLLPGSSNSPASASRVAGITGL

SMILES	SLP76-S376 phosphorylation (Western blot) (HPK1 [1])	ERK1/2 phosphorylation (Western blot) (HPK1 [1])	IC50 [3]	Granzyme B levels in CD8+ T cells [4]	TCR-induced phosphorylation on SLP76-S376 [6]	Cytotoxicity of pretreated PBMCs against HepG2 cells (HepG2 cells)	HPK1 degradation at high concentrations (HPK1 [2])	HPK1 degradation at 1,000 nM (HPK1 [5])	HPK1 degradation at high concentrations (HPK1 [5])	IL-2 production EC50 relative to Compound 2 (Jurkat cells)	IL-2 production, maximal level (Jurkat cells)	HPK1 levels (Western blot) (HPK1 [7]; [9])	SLP76-S376 phosphorylation (Western blot) (HPK1 [7]; [9])	other results
Cc1cc(-c2cnc3[nH]cc(-c4ccc(C(=O)N(C)C)cc4)c3c2)cc2c1CN(CCC(=O)N1CCN(c3ccc(N4CCC(=O)NC4=O)cc3)CC1)CC2 [Compound 2, 4-(5-(2-(3-(4-(4-(2,4-dioxotetrahydropyrimidin-1(2H)-yl)phenyl)piperazin-1-yl)-3-oxopropyl)-8-methyl-1,2,3,4-tetrahydroisoquinolin-6-yl)-1H-pyrrolo[2,3-b]pyridin-3-yl)-N,N-dimethylbenzamide]	attenuated SLP76-S376 phosphorylation	enhanced ERK1/2 phosphorylation only in HKO-HPK1.WT Jurkat cells	~20 nM	enhanced granzyme B levels	effectively reduced	did not exhibited stronger cytotoxicity against HepG2 cells								Maximal enhancement of TCR-induced IL-2 and IFN-γ production (human PBMCs): not stronger than that after treatment with Compound 1; HPK1 degradation, time course (HPK1 [2]; 1 μM, within 24 h): effectively degraded HPK1; DC50 (HPK1 [5]; CD4+ T cells in human PBMCs): 11.5 nM; DC50 (HPK1 [5]; CD8+ T cells in human PBMCs): 26 nM; IC50 for SLP76-S376 phosphorylation relative to the other two compounds [6]: lower in both populations; EC50 (Jurkat cells; Homo sapiens): ~200 nM; HPK1 levels (Western blot) (HPK1 [7]; 300 nM pretreatment): almost complete degradation of HPK1; SLP76-S376 phosphorylation (Western blot) (HPK1 [7]; 300 nM pretreatment): attenuation of SLP76-S376 phosphorylation
Cc1cc(-c2cnc3[nH]cc(-c4ccc(C(=O)N(C)C)cc4)c3c2)cc2c1CN(CCC(=O)N1CCN(c3ccc(N4CCC(=O)N(C)C4=O)cc3)CC1)CC2 [Compound 3, N,N-dimethyl-4-(5-(8-methyl-2-(3-(4-(4-(3-methyl-2,4-dioxotetrahydropyrimidin-1(2H)-yl)phenyl)piperazin-1-yl)-3-oxopropyl)-1,2,3,4-tetrahydroisoquinolin-6-yl)-1H-pyrrolo[2,3-b]pyridin-3-yl)benzamide]	attenuated SLP76-S376 phosphorylation	enhanced ERK1/2 phosphorylation only in HKO-HPK1.WT Jurkat cells	120 nM		effectively reduced	enhanced HepG2 killing ability of PBMCs, but to a less extent than Compound 1 or Compound 2	resulted in the degradation of HPK1	did not significantly degrade HPK1	limited HPK1 degradation	higher	comparable with that induced by Compound 2	without significantly affecting HPK1 levels	reduced or almost completely attenuated SLP76-S376 phosphorylation	
Cc1cc(-c2cnc3[nH]cc(-c4ccc(C(=O)N(C)C)cc4)c3c2)cc2c1CN(C)CC2 [Compound 1, 4-(5-(2,8-dimethyl-1,2,3,4-tetrahydroisoquinolin-6-yl)-1H-pyrrolo[2,3-b]pyridin-3-yl)-N,N-dimethylbenzamide]	attenuated SLP76-S376 phosphorylation	enhanced ERK1/2 phosphorylation only in HKO-HPK1.WT Jurkat cells	120 nM	enhanced granzyme B levels	effectively reduced		resulted in the degradation of HPK1	did not significantly degrade HPK1	limited HPK1 degradation	higher	comparable with that induced by Compound 2	without significantly affecting HPK1 levels	reduced or almost completely attenuated SLP76-S376 phosphorylation	
CC(C)(O)C#Cc1cccc(COc2cc(-c3cnc(C4CCN(C(=O)CCOCCOCCOCCOCCOc5cccc6c5C(=O)N(C5CCC(=O)NC5=O)C6=O)CC4)s3)cnc2N)c1 (stereo not drawn) [SS47]														Tumor suppression compared to the corresponding warhead (HPK1 [8]): greater tumor suppression
